Results taken from publication PMC5694347 (Clinical cancer research : an official journal of the …, 2015).
Marks after values point to notes of the source that are not given here.

Tested on: patients with relapsed and/or refractory lymphoma or MM
Assay: Safety: adverse events graded by NCI CTCAE version 3.0
Conditions: for Patients with serious AEs (SAEs): eight patients
[1] = Schedule B, n=17, high-level term

NS(=O)(=O)OC[C@@H]1C[C@@H](n2ccc3c(N[C@H]4CCc5ccccc54)ncnc32)C[C@@H]1O [pevonedistat]
Abdominal discomfort, Grade ≥3 (Schedule B, n=17): 0 n (%) | Anemia, All grades (Schedule B, n=17): 3 (18) n (%) | Anemia, Grade ≥3 (Schedule B, n=17): 1 (6) n (%) | Any AE, All grades (Schedule B, n=17): 17 (100) n (%) | Any AE, Grade ≥3 (Schedule B, n=17): 12 (71) n (%) | Asthenia, All grades (Schedule B, n=17): 3 (18) n (%) | Asthenia, Grade ≥3 (Schedule B, n=17): 0 n (%) | Back pain, All grades (Schedule B, n=17): 4 (24) n (%) | Back pain, Grade ≥3 (Schedule B, n=17): 0 n (%) | Blood alkaline phosphatase increased, All grades (Schedule B, n=17): 1 (6) n (%) | Blood alkaline phosphatase increased, Grade ≥3 (Schedule B, n=17): 0 n (%) | Blood creatinine increased, All grades (Schedule B, n=17): 0 n (%) | Blood creatinine increased, Grade ≥3 (Schedule B, n=17): 0 n (%) | Chills, All grades (Schedule B, n=17): 6 (35) n (%) | Chills, Grade ≥3 (Schedule B, n=17): 0 n (%) | Constipation, All grades (Schedule B, n=17): 5 (29) n (%) | Constipation, Grade ≥3 (Schedule B, n=17): 0 n (%) | Cough, All grades (Schedule B, n=17): 5 (29) n (%) | Cough, Grade ≥3 (Schedule B, n=17): 0 n (%) | Decreased appetite, All grades (Schedule B, n=17): 10 (59) n (%) | Decreased appetite, Grade ≥3 (Schedule B, n=17): 0 n (%) | Dehydration, All grades (Schedule B, n=17): 3 (18) n (%) | Dehydration, Grade ≥3 (Schedule B, n=17): 1 (6) n (%) | Diarrhea, All grades (Schedule B, n=17): 8 (47) n (%) | Diarrhea, Grade ≥3 (Schedule B, n=17): 0 n (%) | Dizziness, All grades (Schedule B, n=17): 8 (47) n (%) | Dizziness, Grade ≥3 (Schedule B, n=17): 0 n (%) | Dyspepsia, All grades (Schedule B, n=17): 3 (18) n (%) | Dyspepsia, Grade ≥3 (Schedule B, n=17): 0 n (%) | Dyspnea exertional, All grades (Schedule B, n=17): 3 (18) n (%) | Dyspnea exertional, Grade ≥3 (Schedule B, n=17): 0 n (%) | Dyspnea, All grades (Schedule B, n=17): 4 (24) n (%) | Dyspnea, Grade ≥3 (Schedule B, n=17): 1 (6) n (%) | Fatigue, All grades (Schedule B, n=17): 12 (71) n (%) | Fatigue, Grade ≥3 (Schedule B, n=17): 1 (6) n (%) | Headache, All grades (Schedule B, n=17): 9 (53) n (%) | Headache, Grade ≥3 (Schedule B, n=17): 0 n (%) | Hyperbilirubinemia, All grades (Schedule B, n=17): 5 (29) n (%) | Hyperbilirubinemia, Grade ≥3 (Schedule B, n=17): 1 (6) n (%) | Hypercalcemia, All grades (Schedule B, n=17): 1 (6) n (%) | Hypercalcemia, Grade ≥3 (Schedule B, n=17): 0 n (%) | Hyperkalemia, All grades (Schedule B, n=17): 0 n (%) | Hyperkalemia, Grade ≥3 (Schedule B, n=17): 0 n (%) | Hypomagnesemia, All grades (Schedule B, n=17): 1 (6) n (%) | Hypomagnesemia, Grade ≥3 (Schedule B, n=17): 0 n (%) | Hypophosphatemia, All grades (Schedule B, n=17): 1 (6) n (%) | Hypophosphatemia, Grade ≥3 (Schedule B, n=17): 1 (6) n (%) | Insomnia, All grades (Schedule B, n=17): 4 (24) n (%) | Insomnia, Grade ≥3 (Schedule B, n=17): 0 n (%) | Muscle spasms, All grades (Schedule B, n=17): 10 (59) n (%) | Muscle spasms, Grade ≥3 (Schedule B, n=17): 1 (6) n (%) | Myalgia, All grades (Schedule B, n=17): 10 (59) n (%) | Myalgia, Grade ≥3 (Schedule B, n=17): 0 n (%) | Nausea, All grades (Schedule B, n=17): 13 (76) n (%) | Nausea, Grade ≥3 (Schedule B, n=17): 0 n (%) | Neutropenia, All grades (Schedule B, n=17): 2 (12) n (%) | Neutropenia, Grade ≥3 (Schedule B, n=17): 2 (12) n (%) | Pain in extremity, All grades (Schedule B, n=17): 5 (29) n (%) | Pain in extremity, Grade ≥3 (Schedule B, n=17): 0 n (%) | Pain, All grades (Schedule B, n=17): 5 (29) n (%) | Pain, Grade ≥3 (Schedule B, n=17): 1 (6) n (%) | Paresthesia, All grades (Schedule B, n=17): 5 (29) n (%) | Paresthesia, Grade ≥3 (Schedule B, n=17): 0 n (%) | Peripheral edema, All grades (Schedule B, n=17): 3 (18) n (%) | Peripheral edema, Grade ≥3 (Schedule B, n=17): 0 n (%) | Pneumonia, All grades (Schedule B, n=17): 3 (18) n (%) | Pneumonia, Grade ≥3 (Schedule B, n=17): 2 (12) n (%) | Productive cough, All grades (Schedule B, n=17): 3 (18) n (%) | Productive cough, Grade ≥3 (Schedule B, n=17): 0 n (%) | Pyrexia, All grades (Schedule B, n=17): 8 (47) n (%) | Pyrexia, Grade ≥3 (Schedule B, n=17): 1 (6) n (%) | Sinus tachycardia, All grades (Schedule B, n=17): 3 (18) n (%) | Sinus tachycardia, Grade ≥3 (Schedule B, n=17): 0 n (%) | Thrombocytopenia, All grades (Schedule B, n=17): 3 (18) n (%) | Upper respiratory tract infection, All grades (Schedule B, n=17): 3 (18) n (%) | Upper respiratory tract infection, Grade ≥3 (Schedule B, n=17): 1 (6) n (%) | Vision blurred, All grades (Schedule B, n=17): 0 n (%) | Vision blurred, Grade ≥3 (Schedule B, n=17): 0 n (%) | Vomiting, All grades (Schedule B, n=17): 10 (59) n (%) | Vomiting, Grade ≥3 (Schedule B, n=17): 0 n (%) | Weight decreased, All grades (Schedule B, n=17): 3 (18) n (%) | Weight decreased, Grade ≥3 (Schedule B, n=17): 0 n (%) | Thrombocytopenia, Grade ≥3 (Schedule B, n=17, 1 DLT): 1 (6) ^a n (%) | Peripheral neuropathies NEC, All grades [1]: 2 (12) n (%) | Peripheral neuropathies NEC, Grade ≥3 [1]: 0 n (%) | Treatment-related deaths (both schedules): no treatment-related deaths | Peripheral neuropathy rate (overall, both schedules): 11% | Grade ≥3 anemia (schedule A): 19% | Patients who discontinued due to occurrence of an AE (schedule A): 2 n | Patients with SAEs considered related to pevonedistat (schedule A): four | Patients with serious AEs (SAEs) (schedule A): 30% | Grade ≥3 neutropenia (schedule B): 12% | Grade ≥3 pneumonia (schedule B): 12% | Patients who discontinued due to occurrence of an AE (schedule B): 1 n | Patients with serious AEs (SAEs) (schedule B): 47%
